Earlier results on 1 compound are cited in patent publication US20140004176A1, “DELIVERY OF TREATMENTS TRANSDERMALLY FOR FUNGAL INFECTIONS AND OTHER INDICATIONS” (Strategic Science & Techologies, priority 2010, published 2014).

The structures appear in SMILES notation.

Take `C[C@@H](c1ncncc1F)[C@](O)(Cn1cncn1)c1ccc(F)cc1F` [voriconazole]: the pKa was 1.76.
